Holding throughout (experiment): NCI anticancer screen, dose series, 48 h
Assay [1] deals with ACHN.
In assay [2] the test system is RPMI-8226.
The subject of assay [3] is UACC-257.
The subject of assay [4] is MOLT-4.
Assay [5] concerns LOX IMVI.
Assay [6] has as its system HCC 2998.
Assay [7] concerns DMS-114.
Assay [8] relates to NCI-H522.
The subject of assay [9] is SK-MEL-2.
For assay [10], the system named is TK-10.
For assay [11], the system named is UACC-62.
Assay [12] has as its system K562.
The subject of assay [13] is SR.
The subject of assay [14] is A549.
The subject of assay [15] is IGROV-1.
For assay [16], the system named is SF-539.
Assay [17] concerns KM12.
Assay [18] concerns M14.
Assay [19] has as its system HL-60.

This note sets out measurements from ChEMBL document CHEMBL1201862, “PubChem BioAssay data set” (2004).

Molecules are shown by their SMILES.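 These data come from cells grown in 96-well plates and exposed to compound for 48 hours at five concentrations. The concentration for 50% growth inhibition is given as GI50.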 Calls of active or inactive are those of the source. Rule as the data show it: active = GI50 up to about 1.1 µM and inactive = higher. A value given as a limit tells only on which side of the number the result lay.

As to `CCOC(=O)[C@H]1Nc2c(cccc2[N+](=O)[O-])[C@H]2OCC[C@@H]12`, the GI50 in assay [1] was > 100 µM (inactive); in assay [2] it was > 100 µM (inactive); in assay [3] it was 11.5 µM (inactive); in assay [4], > 100 µM (inactive); in assay [5], > 100 µM (inactive); in [6] it was > 100 µM (inactive). The GI50 in [7], in assay [8], in assay [9], in assay [10], in assay [11] and in assay [12] was > 100 µM (inactive) in each case. Also, the GI50 in assay [13], in assay [14], in assay [15], in assay [16], in [17] and in [18] was > 100 µM (inactive) in each case.
For `Cc1cnc(SCCN2CCN(C)CC2)nc1-c1cc2ccccc2s1`, the GI50 in assay [3] was 10.3 µM (inactive); in assay [4], 2.52 µM (inactive); in assay [5], 5.09 µM (inactive); in [6] it was 13.3 µM (inactive); in assay [7], 7.66 µM (inactive); in assay [8], 14.7 µM (inactive). The GI50 is 16.1 µM (inactive) in assay [9]; 17.4 µM (inactive) in assay [10]; 16.2 µM (inactive) in assay [11]; 2.48 µM (inactive) in [13]; 4.62 µM (inactive) in assay [14]; > 10 µM (inactive) in assay [15]. Moreover, the GI50 in [16] is 12.6 µM (inactive); in assay [17], 16.3 µM (inactive); in assay [18] it was 13.2 µM (inactive).
As to `CCN(CC)c1ccc2cc(C(=O)Nc3ccc4[nH]c(C(=O)N5C[C@@H](CCl)c6c5cc(OC(=O)Nc5ccccc5)c5[nH]cc(C)c65)cc4c3)oc2c1` [CARZELESIN], the GI50 is 0.000308 µM (active) in assay [2]; 384 µM (inactive) in assay [3]; 0.000343 µM (active) in [4]; 0.000128 µM (active) in assay [5]; 434 µM (inactive) in assay [6]; 0.000201 µM (active) in [7]. Moreover, the GI50 in assay [19] was 0.000282 µM (active); in [8], 0.000708 µM (active); in assay [9], 0.000601 µM (active); in assay [11], 4.61e-05 µM (active); in assay [12], 0.000556 µM (active); in assay [14], 0.000162 µM (active). Besides, the GI50 is 0.000506 µM (active) in assay [15], 318 µM (inactive) in [16] and 678 µM (inactive) in assay [17].
Turning to `CCOC(=O)NC(=O)c1cn(CCNCCO)c(=O)[nH]c1=O`, the GI50 in assay [1], in assay [2], in assay [4], in assay [5], in [7] and in assay [19] was > 100 µM (inactive) throughout. The GI50 in assay [8], in [9], in assay [11], in assay [12], in assay [13] and in [14] was > 100 µM (inactive) throughout. Also, the GI50 in assay [15], in assay [16], in assay [17] and in [18] was > 100 µM (inactive) throughout.
In the case of `Nc1nc(=O)n(CC(O)CO)s1` (stereo unspecified), the GI50 in [1], in [2], in [3], in assay [4], in assay [5] and in [6] was > 100 µM (inactive) in each case. The GI50 in [7], in assay [19], in assay [9], in assay [10], in assay [11] and in assay [12] was > 100 µM (inactive) in each case. In addition, the GI50 in assay [13], in [14], in assay [15], in [16] and in [18] was > 100 µM (inactive) each time.
